Laboratory results taken from patent US11673910B2, “Macrolides with modified desosamine sugars and uses thereof” (Zikani Therapeutics, Inc., priority 2017, dated 2023).
In brackets after ≈: the same amount, converted by molar mass.

Tests used:
Assay type in all cases: cell-based
[1] = tested on: A. baumannii strain MP-15; assay: Broth dilution MIC determination (CLSI) against A. baumannii strain MP-15; conditions: Acinetobacter baumannii, MP15
Procedure, shortened: (§1)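 Growth inhibition endpoint determined under CLSI broth dilution conditions. Categorical MIC output in mg/L: +++ (≤4), ++ (≥8, <32), + (≥32).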

[2] = tested on: K. pneumoniae strain MP-548; assay: Broth dilution MIC determination (CLSI) against K. pneumoniae strain MP-548; conditions: Klebsiella pneumoniae, MP548
Procedure, shortened: as §1

[3] = tested on: S. aureus strain MP-12; assay: Broth dilution MIC determination (CLSI) against S. aureus strain MP-12; conditions: Staphylococcus aureus, MP12, strain MP-12
Procedure, shortened: as §1

[4] = tested on: E. coli strain MP-4; assay: Broth dilution MIC determination (CLSI) against E. coli strain MP-4; conditions: Escherichia coli, MP4
Procedure, shortened: as §1

[5] = tested on: P. aeruginosa strain MP-3; assay: Broth dilution MIC determination (CLSI) against P. aeruginosa strain MP-3; conditions: Pseudomonas aeruginosa, MP3
Procedure, shortened: as §1

SMILES	MIC [1] [µg/mL]	MIC [2] [µg/mL]	MIC [3] [µg/mL]	MIC [4] [µg/mL]	MIC [5] [µg/mL]
CC[C@H]1OC(=O)[C@@]2(C)CCOC(C)(C[C@@H](C)CN(C(=O)C(F)(F)F)[C@H](C)[C@H]3NC(=O)O[C@@]31C)[C@H](O[C@@H]1OC(C)CC(N(C)C)C1O)[C@@H](C)C2=O (stereo partly drawn) [Compound 220]	≥ 32	≥ 32	≥ 32	≥ 32	≥ 32
CC[C@H]1OC(=O)[C@]2(C)CCO[C@](C)(C[C@@H](C)CN[C@H](C)[C@H]3NC(=O)O[C@@]31C)[C@H](O[C@@H]1O[C@H](CN3CCCCC3)C[C@H](N(C)C)[C@H]1O)[C@@H](C)C2=O [Compound 198]	≥ 32	8 to 32 (≈ 11.3 to 45.1 µM)	8 to 32 (≈ 11.3 to 45.1 µM)	≤ 4	≥ 32
CC[C@H]1OC(=O)C(C)C(=O)[C@H](C)[C@@H](OC2OC(CN3CCC(C)(C)CC3)CC(N(C)C)C2O)[C@](C)(OC)C[C@@H](C)CN[C@H](C)[C@H]2NC(=O)O[C@@]21C (stereo partly drawn) [Compound 138, 3-Desdadinosyl-3-oxo-6-O-methyl-N9a-desmethyl-11,12-dideoxy-12,11-(oxycarbonylimino)-6′-(4″,4″-dimethylpiperidin-1-yl) Azithromycin]	≥ 32	≥ 32	≥ 32	≤ 4	≥ 32
CC[C@H]1OC(=O)C(C)C(=O)[C@H](C)[C@@H](O[C@@H]2OC(CNCc3cccc(OC)c3)CC(N(C)C)C2O)[C@](C)(OC)C[C@@H](C)CN[C@H](C)[C@H]2NC(=O)O[C@@]21C (stereo partly drawn) [Compound 43]	≥ 32	≥ 32	≥ 32	≤ 4	≥ 32
CC[C@H]1OC(=O)C(C)C(=O)[C@H](C)[C@@H](OC2OC(CNC3CC3)CC(N(C)C)C2O)[C@](C)(OC)C[C@@H](C)C(=O)N[C@H](C)[C@H]2NC(=O)O[C@@]21C (stereo partly drawn) [Compound 189, 3-Descladinosyl-3-oxo-6-O-methyl-8-oxo-N9a-desmethyl-11,12-dideoxy-12,11-(oxycarbonylimino)-6′-cyclopropylamino Azithromycin]	≥ 32	≥ 32	≥ 32	≥ 32	≥ 32
CC[C@H]1OC(=O)C(C)C(=O)[C@H](C)[C@@H](OC2OC(CN(C)CC)CC(N(C)C)C2O)[C@](C)(OC)C[C@@H](C)CN(C)[C@H](C)[C@H]2NC(=O)O[C@@]21C (stereo partly drawn) [Compound 158, 3-Descladinosyl-3-oxo-6-O-methyl-11,12-dideoxy-12,11-(oxycarbonylimino)-6′-ethylmethylamino Azithromycin]	≥ 32	8 to 32 (≈ 11.7 to 46.7 µM)	≥ 32	≤ 4	≥ 32
CC[C@H]1OC(=O)[C@]2(C)CC/C(=N\O)CO[C@](C)(C[C@@H](C)CN[C@H](C)[C@H]3NC(=O)O[C@@]31C)[C@H](OC1OC(C)CC(N(C)C)C1O)[C@@H](C)C2=O (stereo partly drawn) [Compound 228]	≥ 32	≥ 32	≥ 32	≥ 32	≥ 32
CC[C@H]1OC(=O)C(C)C(=O)[C@H](C)[C@@H](O[C@@H]2OC(CNc3cccnc3)CC(N(C)C)C2O)[C@](C)(OC)C[C@@H](C)CN[C@H](C)[C@H]2NC(=O)O[C@@]21C (stereo partly drawn) [Compound 52]	≥ 32	8 to 32 (≈ 11.3 to 45.3 µM)	≥ 32	≤ 4	≥ 32

Second part, the compound after the results:

MIC [1] [µg/mL]	MIC [2] [µg/mL]	MIC [3] [µg/mL]	MIC [4] [µg/mL]	MIC [5] [µg/mL]	SMILES
≥ 32	≥ 32	≥ 32	8 to 32 (≈ 12.4 to 49.8 µM)	≥ 32	CC[C@H]1OC(=O)C(C)C(=O)[C@H](C)[C@@H](O[C@@H]2O[C@H](C(C)N)CC(N(C)C)[C@H]2O)[C@](C)(OC)C[C@@H](C)CN[C@H](C)[C@H]2NC(=O)O[C@@]21C (stereo partly drawn) [Compound 181, 3-Desdadinosyl-3-oxo-6-O-methyl-N9a-desmethyl-11,12-dideoxy-12,11-(oxycarbonylimino)-6′-aminoethyl Azithromycin]
≥ 32	≥ 32	≥ 32	≥ 32	≥ 32	CC[C@H]1OC(=O)C(C)(C)C(=O)[C@H](C)[C@@H](O[C@@H]2O[C@H](CNC3CC3)CC(N(C)C)[C@H]2O)[C@](C)(OC)C[C@@H](C)CN(C)[C@H](C)[C@H]2NC(=O)O[C@@]21C (stereo partly drawn) [Compound 190, 2-Methyl-3-descladinosyl-3-oxo-6-O-methyl-N9a-desmethyl-11,12-dideoxy-12,11-(oxycarbonylimino)-6′-cylcopropylamino Azithromycin]
≥ 32	≥ 32	≥ 32	≥ 32	≥ 32	CC[C@H]1OC(=O)C(C)C(=O)[C@H](C)[C@@H](OC2OC(C(O)CNC3CC3)CC(N(C)C)C2O)[C@](C)(OC)C[C@@H](C)CN[C@H](C)[C@H]2NC(=O)O[C@@]21C (stereo partly drawn) [Compound 188, 3-Descladinosyl-3-oxo-6-O-methyl-8-oxo-N9a-desmethyl-11,12-dideoxy-12,11-(oxycarbonylimino)-6′-hydroxy-6′-cyclopropylaminomethyl Azithromycin]
≥ 32	≥ 32	≥ 32	8 to 32 (≈ 12.7 to 50.8 µM)	≥ 32	CC[C@H]1OC(=O)C(C)C(=O)[C@H](C)[C@@H](O[C@@H]2OC(CO)CC(N(C)C)C2O)[C@](C)(OC)C[C@@H](C)CN[C@H](C)[C@H]2NC(=O)O[C@@]21C (stereo partly drawn) [Compound 57]
≥ 32	≥ 32	8 to 32 (≈ 10.8 to 43.3 µM)	8 to 32 (≈ 10.8 to 43.3 µM)	≥ 32	CC[C@H]1OC(=O)C(C)C(=O)[C@H](C)[C@@H](O[C@@H]2OC(CNc3ccc(Cl)cc3)CC(N(C)C)C2O)[C@](C)(OC)C[C@@H](C)CN[C@H](C)[C@H]2NC(=O)O[C@@]21C (stereo partly drawn) [Compound 49]
≥ 32	≥ 32	≥ 32	≤ 4	≥ 32	CC[C@H]1OC(=O)C(C)C(=O)[C@H](C)[C@@H](O[C@@H]2O[C@H](CN(C)C(=O)CN(C)C)CC(N(C)C)[C@H]2O)[C@](C)(OC)C[C@@H](C)CN[C@H](C)[C@H]2NC(=O)O[C@@]21C (stereo partly drawn) [Compound 171, 3-Descladinosyl-3-oxo-6-O-methyl-N9a-desmethyl-11,12-dideoxy-12,11-(oxycarbonylimino)-6′-N-methyl-2″-dimethylamino-acetamide Azithromycin]
≥ 32	≥ 32	≥ 32	≥ 32	≥ 32	CC[C@H]1OC(=O)C(C)C(=O)[C@H](C)[C@@H](OC2OC(CNCCN(C)C)CC(N(C)C)C2O)[C@](C)(OC)C[C@@H](C)CN[C@H](C)[C@H]2NC(=O)O[C@@]21C (stereo partly drawn) [Compound 130, 3-Descladinosyl-3-oxo-6-O-methyl-N9a-desmethyl-11,12-dideoxy-12,11-(oxycarbonylimino)-6′-[(2-dimethylamino)ethylamino]Azithromycin]
8 to 32 (≈ 12 to 47.9 µM)	≥ 32	8 to 32 (≈ 12 to 47.9 µM)	8 to 32 (≈ 12 to 47.9 µM)	≥ 32	CC[C@H]1OC(=O)C(C)C(=O)[C@H](C)[C@@H](O[C@@H]2O[C@H](CCC3CC3)CC(N(C)C)[C@H]2O)[C@](C)(OC)C[C@@H](C)CN[C@H](C)[C@H]2NC(=O)O[C@@]21C (stereo partly drawn) [Compound 185, 3-Descladinosyl-3-oxo-6-O-methyl-N9a-desmethyl-11,12-dideoxy-12,11-(oxycarbonylimino)-6′-cyclopropylmethyl Azithromycin]
≥ 32	≥ 32	≥ 32	8 to 32 (≈ 12.2 to 48.7 µM)	≥ 32	CC[C@H]1OC(=O)C(C)C(=O)[C@H](C)[C@@H](OC2OC(C(=O)NC)CC(N(C)C)C2O)[C@](C)(OC)C[C@@H](C)CN[C@H](C)[C@H]2NC(=O)O[C@@]21C (stereo partly drawn) [Compound 166, 3-Descladinosyl-3-oxo-6-O-methyl-N9a-desmethyl-11,12-dideoxy-12,11-(oxycarbonylimino)-5′-desmethyl-5′-(N-methylcarboxamido) Azithromycin]
≥ 32	≥ 32	≥ 32	≤ 4	≥ 32	CC[C@H]1OC(=O)C(C)C(=O)[C@H](C)[C@@H](O[C@@H]2OC(CNCc3cccc(C#N)c3)CC(N(C)C)C2O)[C@](C)(OC)C[C@@H](C)CN[C@H](C)[C@H]2NC(=O)O[C@@]21C (stereo partly drawn) [Compound 41]
≥ 32	8 to 32 (≈ 11.5 to 46.2 µM)	8 to 32 (≈ 11.5 to 46.2 µM)	≤ 4	≥ 32	CC[C@H]1OC(=O)C(C)C(=O)[C@H](C)[C@@H](OC2OC(CNCC(F)F)CC(N(C)C)C2O)[C@](C)(OC)C[C@@H](C)CN[C@H](C)[C@H]2NC(=O)O[C@@]21C (stereo partly drawn) [Compound 136, 3-Descladinosyl-3-oxo-6-O-methyl-N9a-desmethyl-11,12-dideoxy-12,11-(oxycarbonylimino)-6′-difluoroethylamino Azithromycin]
8 to 32 (≈ 11.7 to 46.9 µM)	8 to 32 (≈ 11.7 to 46.9 µM)	8 to 32 (≈ 11.7 to 46.9 µM)	≤ 4	≥ 32	CC[C@H]1OC(=O)C(C)C(=O)[C@H](C)[C@@H](OC2OC(CN(C)C3CC3)CC(N(C)C)C2O)[C@](C)(OC)C[C@@H](C)CN[C@H](C)[C@H]2NC(=O)O[C@@]21C (stereo partly drawn) [Compound 129, 3-Descladinosyl-3-oxo-6-O-methyl-N9a-desmethyl-11,12-dideoxy-12,11-(oxycarbonylimino)-6′-(N-methylcyclopropylamino) Azithromycin]
≥ 32	8 to 32 (≈ 11.6 to 46.6 µM)	8 to 32 (≈ 11.6 to 46.6 µM)	≤ 4	≥ 32	CC[C@H]1OC(=O)C(C)C(=O)[C@H](C)[C@@H](OC2OC(CN3CC(F)C3)CC(N(C)C)C2O)[C@](C)(OC)C[C@@H](C)CN[C@H](C)[C@H]2NC(=O)O[C@@]21C (stereo partly drawn) [Compound 143, 3-Descladinosyl-3-oxo-6-O-methyl-N9a-desmethyl-11,12-dideoxy-12,11-(oxycarbonylimino)-6′-(3″-fluoroazetidin-1″-yl) Azithromycin]
